Consider three compounds from patent publication US20230405145A1, “IRON OXIDE NANOPARTICLE FOR SUPPRESSING DRUG-RESISTANT GENE FOR THE TREATMENT OF GLIOBLASTOMA” (University of Washington, priority 2020, published 2023).

Data set [1] deals with GBM6 orthotopic xenograft. The data set can be described thus: Kaplan-Meier survival, orthotopic GBM6 xenograft. It is filed as in vivo, NOD-SCID mice. On the procedure:
The mice were closely monitored during the entire treatment period until the time of euthanasia. […] Mice treated with NP-siMGMT-CTX extended their lifespan for 18.3 days while mice treated with TMZ alone extended their lifespan for 2.3 days.
Orthotopic xenograft tumor model and therapy response experiments. All xenograft therapy evaluations were conducted using a GBM6 orthotopic tumor model. The human GBM6 tumor was provided by the Mayo Clinic. The procedure for establishing intracranial tumors was described previously (B. L. Carlson, J. L. Pokorny, M. A. Schroeder, J. N. Sarkaria, Current Protocols in Pharmacology 2011, 52, 1; B. L. Carlson, P. T. Grogan, A. C. Mladek, M. A. Schroeder, G. J. Kitange, P. A. Decker, C. Giannini, W. Wu, K. A. Ballman, C. D. James, J. N. Sarkaria, International Journal of Radiation Oncology, Biology, Physics 2009, 75, 212). In brief, flank GBM6 tumor xenografts were harvested, mechanically disaggregated and stereotaxically injected into the frontal lobe of 6-week-old female NOD-SCID mice (Jackson Laboratories). […] At about 4 weeks post-tumor implantation, mice with similar tumor size as evaluated by MRI were randomized to one treatment group treated with NP-siMGMT-CTX+TMZ, and three control groups treated with either NP-siGFP-CTX+TMZ, TMZ only, or untreated. […]

The next data set relates to A1235 cells. In words: Clonogenic assay, MGMT-deficient A1235 cells. The settings on record: A1235 (GBM cell line).
The next data set relates to SF763 cells. The data set can be described thus: Clonogenic assay, MGMT-proficient SF763 cells. Conditions: SF763 (GBM cell line).
The next data set deals with GBM6 cells. The data set can be described thus: Alamar blue viability assay, GBM6 stem-like cells. The settings on record: GBM6 (cancer stem cell). In general terms: The colour change of resazurin is a common sign of viable cells or microbes.
The test system of the next data set is primary brain tumors. The settings on record: cited from earlier work.
The conditions of data set [2]: systemic administration; cited from earlier work.

Method for GBM6 cells: Cell survival assays. Alamar blue assay was used to evaluate cell viability following the manufacture's protocol (Life Technologies). […] AB assay was conducted at 2 days after transfection. Cells were washed with PBS (pH 7.4) three times before adding 10% AB in complete growth medium to the wells. After incubation for 1 hr, the AB solution was transferred to a 96-well plate, and fluorescent emissions at an excitation wavelength of 550 nm and an emission wavelength of 590 nm were read on a SpectraMax M5 microplate reader (Molecular Devices).

In turn, `Cn1nnc2c(C(N)=O)ncn2c1=O` [TMZ, temozolomide] displayed a median survival in data set [1] (NPs given with TMZ per FIG. 5A schedule, TMZ 100 mg/kg oral) of 40.8 ± 2.7 days. In addition, the extension of lifespan in data set [1] (versus untreated mice) was 2.3 days. Besides, the “TMZ required for effective treatment” value amounted to 10 µM in the data set with A1235 cells, 400 µM with SF763 cells and 4 mM with GBM6 cells.
With chlorotoxin [CTX], the “primary brain tumors targeted, of those examined” value with primary brain tumors is 74 out of 79.
Take `Nc1nc(OCc2ccccc2)c2nc[nH]c2n1` [BG, O^6-benzylguanine]: the “toxicity in combination with TMZ” value in data set [2] is listed as “severe myelotoxicity”.
